Reference: patent US10206907B2, “Compounds useful for the treatment of degenerative and inflammatory diseases” (GALAPAGOS NV, priority 2008, dated 2019)

What was measured:
[1] = molecular target: Recombinant human JAK1 catalytic domain (Homo sapiens (Human), UniProt P23458); experiment: JAK1 inhibition assay; assay type: biochemical; settings: semi-quantitative score
Procedure, shortened: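 IC50 values come from dose-response series, with each point expressed as percent inhibition of cpm. Vehicle sets full activity and 10 μM staurosporine sets background. Incorporated radioactivity counted by scintillation after washing with 75 mM phosphoric acid.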

[2] = molecular target: Recombinant human JAK2 catalytic domain (Homo sapiens (Human), UniProt O60674); experiment: JAK2 inhibition assay; assay type: biochemical; settings: semi-quantitative score
Sequence of Recombinant human JAK2 catalytic domain (O60674 808-1132): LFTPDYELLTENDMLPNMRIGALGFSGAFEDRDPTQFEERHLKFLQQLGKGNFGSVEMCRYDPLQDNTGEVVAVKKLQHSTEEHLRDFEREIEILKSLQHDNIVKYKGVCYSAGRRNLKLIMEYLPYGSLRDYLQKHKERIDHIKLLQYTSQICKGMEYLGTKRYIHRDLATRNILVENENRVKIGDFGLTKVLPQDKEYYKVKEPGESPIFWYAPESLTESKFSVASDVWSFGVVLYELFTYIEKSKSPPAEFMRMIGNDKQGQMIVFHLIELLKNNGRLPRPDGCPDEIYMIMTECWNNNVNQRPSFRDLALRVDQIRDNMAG
Procedure, shortened: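 Activity was taken as vehicle cpm minus cpm with 10 μM staurosporine, and inhibition was expressed on that scale. Incubation was 90 min at 30 °C, followed by acid quench, phosphoric acid washes and Microscint counting. Compounds were tested as dose series to obtain IC50.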

[3] = system: JAK-STAT signalling in HeLa cells; experiment: JAK-STAT signalling assay (OSM-triggered pSTAT1(2)-luciferase reporter in HeLa cells); assay type: cell-based; settings: Homo sapiens; HeLa cells, OSM-triggered pSTAT1(2)-luciferase reporter; read-out: STAT signalling EC50
Procedure, shortened: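 Read-out is oncostatin M–driven pSTAT1(2)-luciferase activity, corrected by co-transfected LacZ β-galactosidase, in transiently transfected HeLa cells cultured overnight at 37 °C, 10% CO2. Inhibition percentages against positive and negative controls were plotted across doses to derive EC50.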

[4] = system: MMP13 in SW1353 cells; experiment: OSM/IL-1β signaling assay (MMP13 levels in SW1353 cells); assay type: cell-based; settings: Homo sapiens; SW1353 cells, OSM and IL-1β triggered, MMP13 levels 48 hours after triggering; read-out: MMP13 EC50;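 note: secreted MMP13 captured by antibody, activated with APMA and its activity read by fluorescence, inhibition scaled between vehicle-treated triggered wells (0%) and untriggered wells (100%)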
[5] = Microsomal stability, human liver microsomes; assay type: in vitro ADME; settings: percentage of compound remaining after 60 minutes, 3 μM compound
Method: (§1) 40 μL of deionised water was added to a well of a polypropylene Matrix 2D barcode labelled storage tube (Thermo Scientific) and pre-incubated at 37° C.
(§2) A co-factor containing MgCl2, glucose-6-phosphate and NADP+ was prepared in deionised water and placed on ice before use.
(§3) A final working solution containing liver microsomes (Xenotech of a species of interest (human, mouse, rat, dog), previously described G6PDH and co-factors was prepared and this mix was incubated for no longer than 20 minutes at room temperature.
(§4) 30 μL of the pre-heated compound dilution was added to 40 μL of pre-heated water in the Matrix tubes and 30 μL of the microsomal mix was added.
(§5) To measure percentage remaining of compound at time zero MeOH or ACN was added (1:1) to the well before adding the microsomal mix.
(§6) The samples which were not stopped are incubated at 37° C., 300 rpm and after 1 hour of incubation the reaction was stopped with MeOH or ACN (1:1).
(§7) After stopping the reaction the samples were mixed and placed on ice for 30 min to precipitate the proteins.
(§8) The samples were analyzed on LCMS with a flow rate of 1 mL/min. Solvent A was 15 mM ammonia and solvent B was methanol or acetonitrile, depending on the stop solution used. […] The percentage remaining after 1 hour incubation was calculated from time 0 and was calculated as the percentage remaining.
(§9) The data on microsomal stability are expressed as a percentage of the total amount of compound remaining after 60 minutes.

[6] = Microsomal stability, rat liver microsomes; assay type: in vitro ADME; settings: percentage of compound remaining after 60 minutes, 3 μM compound
Method: as §1, §2, §3, §4, §5, §6, §7, §8, §9

Sequence of Recombinant human JAK1 catalytic domain (P23458 850-1154): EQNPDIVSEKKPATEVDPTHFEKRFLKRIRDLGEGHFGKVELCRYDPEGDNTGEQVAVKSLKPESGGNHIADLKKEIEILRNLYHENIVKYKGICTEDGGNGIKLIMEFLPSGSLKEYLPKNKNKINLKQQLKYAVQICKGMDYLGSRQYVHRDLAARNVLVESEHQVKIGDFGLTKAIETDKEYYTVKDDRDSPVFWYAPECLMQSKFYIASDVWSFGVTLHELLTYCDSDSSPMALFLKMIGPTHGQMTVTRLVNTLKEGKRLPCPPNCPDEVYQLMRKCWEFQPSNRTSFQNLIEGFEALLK

SMILES	IC50 [1] [nM]	IC50 [2] [nM]	EC50 [3] [nM]	EC50 [4] [nM]	Microsomal Stability Human (%) [5]	Microsomal Stability Rat (%) [6]
O=C(Nc1nc2cccc(-c3ccc(-c4ccccc4)cc3)n2n1)C1CC1 [Compound 7, N-(5-(biphenyl-4-yl)-[1,2,4]triazolo[1,5-a]pyridin-2-yl)cyclopropanecarboxamide]	< 100	101 to 500	> 1000	> 1000	** (** 26-50)	** (** 26-50)
O=C(Nc1ccc(-c2cccc3nc(NC(=O)C4CC4)nn23)cc1)c1ccccc1 [Compound 21, N-(4-(2-(cyclopropanecarboxamido)-[1,2,4]triazolo[1,5-a]pyridin-5-yl)phenyl)benzamide]	< 100	101 to 500	> 1000	> 1000	*** (*** 51-75)	**** (**** 76-100)
O=C(Cc1ccccc1)Nc1ccc(-c2cccc3nc(NC(=O)C4CC4)nn23)cc1 [Compound 23, N-(5-(4-(2-phenylacetamido)phenyl)-[1,2,4]triazolo[1,5-a]pyridin-2-yl)cyclopropanecarboxamide]	< 100	101 to 500	> 1000	> 1000	* (* 0-25)	** (** 26-50)
O=C(Nc1nc2cccc(-c3ccc(OCCOc4ccc(F)cc4)cc3)n2n1)C1CC1 [Compound 115, N-(5-(4-(2-(4-fluorophenoxy)ethoxy)phenyl)-[1,2,4]triazolo[1,5-a]pyridin-2-yl)cyclopropanecarboxamide]	< 100	101 to 500	> 1000	> 1000	*** (*** 51-75)	** (** 26-50)
O=C(Nc1nc2cccc(-c3ccc(NCCc4ccccc4)nc3)n2n1)C1CC1 [Compound 123, N-(5-(6-(phenethylamino)pyridin-3-yl)-[1,2,4]triazolo[1,5-a]pyridin-2-yl)cyclopropanecarboxamide]	< 100	–	> 1000	> 1000	* (* 0-25)	* (* 0-25)
O=C(NCCc1cccnc1)c1ccc(-c2cccc3nc(NC(=O)C4CC4)nn23)cc1 [Compound 124, 4-(2-(cyclopropanecarboxamido)-[1,2,4]triazolo[1,5-a]pyridin-5-yl)-N-(2-(pyridin-3-yl)ethyl)benzamide]	< 100	–	> 1000	> 1000	* (* 0-25)	* (* 0-25)
CC1CC(C)CN(C(=O)c2ccc(-c3cccc4nc(NC(=O)C5CC5)nn34)cc2)C1 (stereo not shown) [Compound 134]	< 100	–	501 to 1000	> 1000	*** (*** 51-75)	** (** 26-50)
O=C(Nc1nc2cccc(-c3ccc(C(=O)N4CCC(F)CC4)cc3)n2n1)C1CC1 [Compound 137, N-(5-(4-(4-fluoropiperidine-1-carbonyl)phenyl)-[1,2,4]triazolo[1,5-a]pyridin-2-yl)cyclopropanecarboxamide]	< 100	–	501 to 1000	> 1000	*** (*** 51-75)	**** (**** 76-100)
O=C(Nc1nc2cccc(-c3ccc(C(=O)N4CCC(c5cc6ccccc6[nH]5)CC4)cc3)n2n1)C1CC1 [Compound 138]	< 100	–	101 to 500	> 1000	** (** 26-50)	*** (*** 51-75)
CC1CCCCN1C(=O)c1ccc(-c2cccc3nc(NC(=O)C4CC4)nn23)cc1 (stereo not shown) [Compound 144, N-(5-(4-(2-methylpiperidine-1-carbonyl)phenyl)-[1,2,4]triazolo[1,5-a]pyridin-2-yl)cyclopropanecarboxamide]	< 100	–	> 1000	> 1000	** (** 26-50)	* (* 0-25)
CN(C)CCN(Cc1ccccc1)C(=O)c1ccc(-c2cccc3nc(NC(=O)C4CC4)nn23)cc1 [Compound 150, N-benzyl-4-(2-(cyclopropanecarboxamido)-[1,2,4]triazolo[1,5-a]pyridin-5-yl)-N-(2-(dimethylamino)ethyl)benzamide]	< 100	–	> 1000	> 1000	*** (*** 51-75)	* (* 0-25)
O=C(Nc1nc2cccc(-c3ccc(OCc4ccc(-c5cn[nH]c5)nc4)cc3)n2n1)C1CC1 [Compound 166]	< 100	–	> 1000	> 1000	*** (*** 51-75)	* (* 0-25)
O=C(Nc1nc2cccc(-c3ccc(C(=O)N4CCCC(c5ccccc5)C4)cc3)n2n1)C1CC1 (stereo not shown) [Compound 169, N-(5-(4-(3-phenylpiperidine-1-carbonyl)phenyl)-[1,2,4]triazolo[1,5-a]pyridin-2-yl)cyclopropanecarboxamide]	< 100	–	> 1000	> 1000	* (* 0-25)	* (* 0-25)
N#CC1(C(=O)Nc2ccc(-c3cccc4nc(NC(=O)C5CC5)nn34)cc2)CC1 [Compound 177, 1-cyano-N-(4-(2-(cyclopropanecarboxamido)-[1,2,4]triazolo[1,5-a]pyridin-5-yl)phenyl)cyclopropanecarbox-amide]	< 100	–	> 1000	> 1000	**** (**** 76-100)	**** (**** 76-100)
Cn1cc(-c2ccc(COc3ccc(-c4cccc5nc(NC(=O)C6CC6)nn45)cc3)cn2)cn1 [Compound 178]	< 100	–	> 1000	> 1000	* (* 0-25)	** (** 26-50)
O=C(Nc1nc2cccc(-c3ccc(NCc4cccnc4)cc3)n2n1)C1CC1 [Compound 182, N-(5-(4-(pyridin-3-ylmethylamino)phenyl)-[1,2,4]triazolo[1,5-a]pyridin-2-yl)cyclopropanecarboxamide]	< 100	–	> 1000	> 1000	* (* 0-25)	* (* 0-25)
COC(=O)c1ccc(COc2ccc(-c3cccc4nc(NC(=O)C5CC5)nn34)cc2)nc1 [Compound 190]	< 100	–	> 1000	> 1000	* (* 0-25)	* (* 0-25)
NC(=O)c1ccc(NCc2ccc(-c3cccc4nc(NC(=O)C5CC5)nn34)cc2)cc1 [Compound 227, 4-{4-[2-(Cyclopropanecarbonyl-amino)-[1,2,4]triazolo[1,5-a]pyridin-5-yl]-benzylamino}-benzamide]	< 100	–	> 1000	501 to 1000	** (** 26-50)	**** (**** 76-100)
